The source of these data is patent publication US20240058450A1, “BCL-XL Inhibitory Compounds Having Low Cell Permeability and Antibody Drug Conjugates Including the Same” (AbbVie Inc., priority 2014, published 2024).

One series addresses Bcl-xL (Homo sapiens, UniProt Q07817). Kind of series: Time Resolved-Fluorescence Resonance Energy Transfer (TR-FRET) binding assay, competition with probe F-Bak. The gist of the method:
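Compounds compete with F-Bak probe for GST-Bcl-xL detected by Tb-anti-GST antibody. Serial dilutions from 50 μM (2× stock) incubated 2 h at room temperature, then read at 340 nm excitation, 520 and 495 nm emission. Ki by Wang's equation, tested without and with 1% human serum.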
(In general: In TR-FRET formats the signal depends on donor and acceptor labels being close together.)

In series [1] the test system is Molt-4 human acute lymphoblastic leukemia cells. The series can be described thus: Molt-4 cell viability assay (CellTiter-Glo, 48 hours, 10% HS). The series is classed as cell-based. Conditions: Homo sapiens, MOLT-4, 48 h, non-permeabilized cells. The method, boiled down:
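Cells were seeded at 12,500 per well in medium with 10% human serum and exposed to a 3-fold compound dilution series from 10 μM to 0.0005 μM. After 48 h, viable cells were quantified by CellTiter-Glo luminescence. Each concentration was run in duplicate on at least 3 occasions.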
A general note: ATP-based viability assays read luminescence as a measure of living cells.

The test system of series [2] is permeabilized Molt-4 cells. Kind of series: JC-1 percent depolarization assay in digitonin permeabilized Molt-4 cells. Format: cell-based. Conditions: Homo sapiens. The source says: In addition to cytochrome c release, mitochondria undergoing apoptosis frequently lose their transmembrane mitochondrial membrane potential (Bouchier-Hayes et al., 2008, Methods 44(3): 222-228). JC-1 is a cationic carbocyanine dye that accumulates in mitochondria and fluoresces red when mitochondria are healthy and is lost when the mitochondrial membrane is compromised (percentage depolarization; Smiley et al., 1991, Proc. Natl. Acad. Sci. USA, 88: 3671-3675; Reers et al., 1991: Biochemistry, 30: 4480-4486). This loss in signal can be detected in permeabilized cells using a fluorimeter (excitation 545 nm and emission of 590 nm) and is therefore fully quantitative, enhancing both reproducibility and throughput. Specifically, digitonin permeabilized molt-4 cells (75,000/well) were treated with Bcl-xL inhibitors (1000 nM-0.00 nM) for up to 180 minutes at 32° C., with fluorescence determined every 10 minutes. At the maximal signal, the percentage depolarization can be determined for each time concentration of Bcl-xL inhibitors according to the formula:
% Depolarization=1−[(Sample−FCCP)/(DMSO−FCCP)]
DMSO and FCCP (10 μM) are used as negative and positive controls respectively (Ryan & Letai, 2013, Methods 61(2): 156-164). EC50 values were subsequently determined from the resulting concentration-response curves. Good alignment was observed when the ability of Bcl-xL inhibitors to induce cytochrome c release was compared to loss in JC-1 fluorescence in permeabilized Molt-4 cells.

The subject of another series is circulating platelets. The series can be described thus: Number of circulating platelets in mice after a single intraperitoneal injection (thrombocytopenia). Conditions: for thrombocytopenia: after injection of the compound; for Lowest thrombocyte count / Time to lowest count: single intraperitoneal injection.
Series [3] has as its system permeabilized Bcl-xL dependent Molt-4 cells. The series can be described thus: Cytochrome C release in selectively (digitonin) permeabilized Molt-4 cells. Format: cell-based, human. Conditions: Homo sapiens, MOLT-4, 4 h, 4 h treatment, read-out: Molt-4 Permeabilized Cyt C Release. The method, boiled down:
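Bcl-xL-dependent Molt-4 cells (1×10^6) treated 4 h at 37° C, 5% CO2 with compound in half-log dilutions from 3.0 to 0.01 μM. Plasma membrane selectively permeabilized with digitonin to wash out cytosolic cytochrome C released from mitochondria; release measured as apoptosis proxy.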

[4] abbreviates: in the presence of 1% HS, read-out: Bcl-xL Binding Ki (nM, 1% HS).
Where [5] appears, read: without HS, read-out: Bcl-xL Binding Ki.

Like-named read-outs stand apart in the source and are kept apart here.

Bcl-xL, sequence (Q07817 whole entry): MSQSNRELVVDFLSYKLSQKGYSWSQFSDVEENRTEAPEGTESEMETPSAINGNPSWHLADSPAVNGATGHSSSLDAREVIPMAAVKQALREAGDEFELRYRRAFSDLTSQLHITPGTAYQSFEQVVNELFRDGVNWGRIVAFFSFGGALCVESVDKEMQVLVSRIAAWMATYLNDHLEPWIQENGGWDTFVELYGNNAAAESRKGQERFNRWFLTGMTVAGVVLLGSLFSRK

For the molecule `Cc1c(-c2ccc(N3CCc4cccc(C(=O)Nc5nc6ccccc6s5)c4C3)nc2C(=O)O)cnn1CC12CC3(C)CC(C)(C1)CC(OCCNC[C@@H](O)[C@@H](O)[C@H](O)CO)(C3)C2` [Example 1.76, 5-{[2-([3-[(4-{6-[8-(1,3-benzothiazol-2-ylcarbamoyl)-3,4-dihydroisoquinolin-2 (1H)-yl]-2-carboxypyridin-3-yl}-5-methyl-1H-pyrazol-1-yl)methyl]-5,7-dimethyltricyclo[3.3.1.1^3,7]dec-1-yl}oxy)ethyl]amino}-5-deoxy-D-arabinitol], the results for the inhibition constant (Ki) at Bcl-xL (setting [4]) and at Bcl-xL (setting [5]) were 1.05 nM and less than 0.01 nM, respectively. Also, the EC50 was found to be 495 nM in series [1] and 0.26 nM in series [2].
With `CNCCOC12CC3(C)CC(C)(CC(Cn4ncc(-c5ccc(N6CCc7cccc(C(=O)Nc8nc9ccccc9s8)c7C6)nc5C(=O)O)c4C)(C3)C1)C2` [Example 1.13.7, 6-[8-(1,3-benzothiazol-2-ylcarbamoyl)-3,4-dihydroisoquinolin-2 (1H)-yl]-3-[1-({3,5-dimethyl-7-[2-(methylamino)ethoxy]tricyclo[3.3.1.1^3,7]dec-1-yl}methyl)-5-methyl-1H-pyrazol-4-yl]pyridine-2-carboxylic acid], in the series on circulating platelets, the “time of maximal thrombocytopenia following injection” value worked out at 6 h and the thrombocytopenia entry was “caused thrombocytopenia”. Besides, in the series with circulating platelets (dose of 0.61 mg/kg), the “platelet number after dosing” value is listed as 6*10^3 /mm^3. The “decrease of platelet number” value with circulating platelets (dose of 0.61 mg/kg, from normal count of approximately 6*10^5/mm^3) is listed as 100 fold. Besides, in the series on circulating platelets (dose 0.61 mg/kg), the Lowest thrombocyte count was 6 1/10^3 of the platelet#/mm^3 and the “Time to lowest count” value came to 6 h.
`Cc1c(-c2ccc(N3CCc4cccc(C(=O)Nc5nc6ccccc6s5)c4C3)nc2C(=O)O)cnn1CC12CC3CC(CC(C3)C1)C2` [Example A-1331852, reference compound]: in the series on circulating platelets, the “time of maximal thrombocytopenia following injection” value worked out at 6 h and the thrombocytopenia entry was “caused thrombocytopenia”. In the series on circulating platelets (dose 25 mg/kg), the Lowest thrombocyte count is listed as 9 1/10^3 of the platelet#/mm^3 and the “Time to lowest count” value stood at 6 h.
In the case of `Cc1c(-c2ccc(N3CCc4cccc(C(=O)Nc5nc6ccccc6s5)c4C3)nc2C(=O)O)cnn1CC12CC3(C)CC(C)(C1)CC(OCCNCC(CO)CO)(C3)C2` [Example 1.79, 6-[8-(1,3-benzothiazol-2-ylcarbamoyl)-3,4-dihydroisoquinolin-2 (1H)-yl]-3-(1-{[3-(2-{[3-hydroxy-2-(hydroxymethyl)propyl]amino}ethoxy)-5,7-dimethyltricyclo[3.3.1.1^3,7]dec-1-yl]methyl}-5-methyl-1H-pyrazol-4-yl)pyridine-2-carboxylic acid], the Ki on Bcl-xL (setting [4]) was 3.1 nM; on Bcl-xL (setting [5]), less than 0.01 nM. For the same molecule, the EC50 in series [1] is 104 nM; in series [2], 0.14 nM.
As to `Cc1c(-c2ccc(-c3ccc4cccc(C(=O)Nc5nc6ccccc6s5)c4c3)nc2C(=O)O)cnn1CC12CC3(C)CC(C)(C1)CC(OCCNCCCO[C@@H]1O[C@H](C(=O)O)[C@@H](O)[C@H](O)[C@H]1O)(C3)C2` [Example 1.87, 3-{[2-({3-[(4-{6-[8-(1,3-benzothiazol-2-ylcarbamoyl)naphthalen-2-yl]-2-carboxypyridin-3-yl)-5-methyl-1H-pyrazol-1-yl)methyl]-5,7-dimethyltricyclo[3.3.1.1^3,7]dec-1-yl}oxy)ethyl]amino}propyl beta-D-glucopyranosiduronic acid], the results for the inhibition constant (Ki) on Bcl-xL (setting [4]) and at Bcl-xL (setting [5]) were 0.55 nM and less than 0.01 nM, respectively. Further, the EC50 in series [1] is 378 nM; in series [2], 0.06 nM.
With `Cc1c(-c2ccc(N3CCc4cccc(C(=O)Nc5nc6ncccc6s5)c4C3)nc2C(=O)O)cnn1CC12CC3(C)CC(C)(C1)CC(OCCNCCS(=O)(=O)O)(C3)C2` [Example 1.23, 3-{1-[(3,5-dimethyl-7-{2-[(2-sulfoethyl)amino]ethoxy}tricyclo[3.3.1.1^3,7]dec-1-yl)methyl]-5-methyl-1H-pyrazol-4-yl}-6-[8-([1,3]thiazolo[4,5-b]pyridin-2-ylcarbamoyl)-3,4-dihydroisoquinolin-2 (1H)-yl]pyridine-2-carboxylic acid], the EC50 in series [3] is less than 0.5 nM; in series [1] it was 2720 nM; in series [2], 0.24 nM. For the same molecule, the figures for the inhibition constant (Ki) on Bcl-xL (setting [4]) and at Bcl-xL (setting [5]) were 0.1 nM and 0.006 nM, respectively.
For `Cc1c(-c2ccc(N3CCc4cccc(C(=O)Nc5nc6ccccc6s5)c4C3)nc2C(=O)O)cnn1CC12CC3(C)CC(C)(C1)CC(OCCNCC[C@@H](O)[C@H](O)[C@H](O)CO)(C3)C2` [Example 1.77, 1-{[2-({3-[(4-{6-[8-(1,3-benzothiazol-2-ylcarbamoyl)-3,4-dihydroisoquinolin-2 (1H)-yl]-2-carboxypyridin-3-yl}-5-methyl-1H-pyrazol-1-yl)methyl]-5,7-dimethyltricyclo[3.3.1.1^3,7]dec-1-yl}oxy)ethyl]amino}-1,2-dideoxy-D-arabino-hexitol], the figures for the Ki on Bcl-xL (setting [4]) and at Bcl-xL (setting [5]) were 0.166 nM and less than 0.01 nM, respectively. For the same molecule, the values for the EC50 in series [1] and in series [2] were 837 nM and 0.099 nM, respectively.
Taken in the same sequence, the figures for `Cc1c(-c2ccc(N3CCc4cccc(C(=O)Nc5nc6ccccc6s5)c4C3)nc2C(=O)O)cnn1CC12CC3(C)CC(C)(C1)CC(OCCNC(CO)CO)(C3)C2` [Example 1.45, 6-[8-(1,3-benzothiazol-2-ylcarbamoyl)-3,4-dihydroisoquinolin-2 (1H)-yl]-3-{1-[(3-{2-[(1,3-dihydroxypropan-2-yl)amino]ethoxy}-5,7-dimethyltricyclo[3.3.1.1^3,7]dec-1-yl)methyl]-5-methyl-1H-pyrazol-4-yl}pyridine-2-carboxylic acid] were 0.134 nM, less than 0.001 nM, 19 nM and 0.13 nM.
`CNCCOC12CC3(C)CC(C)(CC(Cn4ncc(-c5ccc(N6CCc7c(OCC(=O)O)ccc(C(=O)Nc8nc9ccccc9s8)c7C6)nc5C(=O)O)c4C)(C3)C1)C2` [Example 1.41, 6-[8-(1,3-benzothiazol-2-ylcarbamoyl)-5-(carboxymethoxy)-3,4-dihydroisoquinolin-2 (1H)-yl]-3-[1-({3,5-dimethyl-7-[2-(methylamino)ethoxy]tricyclo[3.3.1.1^3,7]dec-1-yl}methyl)-5-methyl-1H-pyrazol-4-yl]pyridine-2-carboxylic acid]: the EC50 in series [3] is less than 0.5 nM; in series [1] it was 473 nM; in series [2], 0.56 nM. In addition, the Ki at Bcl-xL (setting [4]) stood at 0.81 nM; on Bcl-xL (setting [5]), 0.008 nM.
Regarding `Cc1c(-c2ccc(-c3cnc4cccc(C(=O)Nc5nc6ccccc6s5)c4c3)nc2C(=O)O)cnn1CC12CC3(C)CC(C)(C1)CC(OCCNCCS(=O)(=O)O)(C3)C2` [Example 1.69, 6-[5-(1,3-benzothiazol-2-ylcarbamoyl)quinolin-3-yl]-3-{1-[(3,5-dimethyl-7-{2-[(2-sulfoethyl)amino]ethoxy}tricyclo[3.3.1.1^3,7]dec-1-yl)methyl]-5-methyl-1H-pyrazol-4-yl}pyridine-2-carboxylic acid], the Ki was 4.9 nM at Bcl-xL (setting [4]) and less than 0.01 nM on Bcl-xL (setting [5]). The molecule further showed an EC50 in series [2] of 0.14 nM.
Turning to `CNCCOC12CC3(C)CC(C)(CC(Cn4ncc(-c5ccc(-c6ccc7c[n+]([O-])cc(C(=O)Nc8nc9ccccc9s8)c7c6)nc5C(=O)O)c4C)(C3)C1)C2` [Example 1.88, 6-[4-(1,3-benzothiazol-2-ylcarbamoyl)-2-oxidoisoquinolin-6-yl]-3-[1-({3,5-dimethyl-7-[2-(methylamino)ethoxy]tricyclo[3.3.1.1^3,7]dec-1-yl}methyl)-5-methyl-1H-pyrazol-4-yl]pyridine-2-carboxylic acid], the figures for the Ki on Bcl-xL (setting [4]) and on Bcl-xL (setting [5]) were 3 nM and 0.127 nM, respectively. Moreover, the results for the EC50 in series [1] and in series [2] were 96 nM and 0.21 nM, respectively.
As to `Cc1c(-c2ccc(N3CCc4cccc(C(=O)Nc5nc6ccccc6s5)c4C3)nc2C(=O)O)cnn1CC12CC3(C)CC(C)(C1)CC(OCCNCC[C@H](O)CO)(C3)C2` [Example 1.85], the Ki was found to be 0.4 nM at Bcl-xL (setting [4]) and 0.016 nM at Bcl-xL (setting [5]). Besides, the figures for the EC50 in series [1] and in series [2] were 78 nM and 0.07 nM, respectively.

A word on the Ki: it is the equilibrium dissociation constant of an inhibitor or competing ligand from its target.
